Measurements published in ChEMBL document CHEMBL5241092, “The antibacterial activity of fluoroquinolone derivatives: An update (2018-2021)” (2021).
Values after ≈ are worked out from the molar mass of the structure shown.

How the values were obtained:
Escherichia coli [1] = experiment: Antibacterial activity against Escherichia coli; assay type: functional
Pseudomonas aeruginosa [2] = experiment: Antibacterial activity against Pseudomonas aeruginosa; assay type: functional
Salmonella enteritidis = experiment: Antibacterial activity against Salmonella enteritidis; assay type: functional, Salmonella enterica subsp. enterica serovar Enteritidis; conditions: Salmonella enterica
Staphylococcus aureus [3] = experiment: Antibacterial activity against Staphylococcus aureus; assay type: functional
Staphylococcus aureus [4] = experiment: Antibacterial activity against methicillin susceptible Staphylococcus aureus; assay type: functional
Streptococcus pneumoniae = experiment: Antibacterial activity against Streptococcus pneumoniae; assay type: functional
Klebsiella pneumoniae = experiment: Antibacterial activity against Klebsiella pneumoniae; assay type: functional
[5] = tested on: Staphylococcus epidermidis; experiment: Antibacterial activity against Staphylococcus epidermidis; assay type: functional
[6] = Antibacterial activity against Salmonella typhi; assay type: functional, Salmonella enterica subsp. enterica serovar Typhimurium; conditions: Salmonella enterica
Vibrio cholerae = experiment: Antibacterial activity against Vibrio cholerae; assay type: functional
Shigella flexneri = experiment: Antibacterial activity against Shigella flexneri; assay type: functional
Citrobacter freundii = experiment: Antibacterial activity against Citrobacter freundii; assay type: functional
Staphylococcus aureus [7] = experiment: Antibacterial activity against methicillin resistant Staphylococcus aureus; assay type: functional
Pseudomonas aeruginosa [8] = experiment: Antibacterial activity against quinolone susceptible Pseudomonas aeruginosa; assay type: functional
Escherichia coli [9] = experiment: Antibacterial activity against quinolone susceptible Escherichia coli; assay type: functional
Pseudomonas aeruginosa [10] = experiment: Antibacterial activity against quinolone resistant Pseudomonas aeruginosa; assay type: functional
Escherichia coli [11] = experiment: Antibacterial activity against quinolone resistant Escherichia coli; assay type: functional
Acinetobacter baumannii [12] = experiment: Antibacterial activity against quinolone resistant Acinetobacter baumannii; assay type: functional
Pseudomonas aeruginosa [13] = experiment: Potency index, ratio of levofloxacin MIC to test compound MIC for quinolone resistant Pseudomonas aeruginosa; assay type: functional
Escherichia coli [14] = experiment: Potency index, ratio of levofloxacin MIC to test compound MIC for quinolone resistant Escherichia coli; assay type: functional
Acinetobacter baumannii [15] = experiment: Potency index, ratio of levofloxacin MIC to test compound MIC for quinolone resistant Acinetobacter baumannii; assay type: functional
[16] = tested on: Yersinia pseudotuberculosis; experiment: Antibacterial activity against Yersinia pseudotuberculosis; assay type: functional
Enterococcus faecalis = experiment: Antibacterial activity against Enterococcus faecalis; assay type: functional
Bacillus cereus = experiment: Antibacterial activity against Bacillus cereus; assay type: functional
Bacillus subtilis = experiment: Antibacterial activity against Bacillus subtilis; assay type: functional
Serratia marcescens = experiment: Antibacterial activity against Serratia marcescens; assay type: functional
Clostridioides difficile = experiment: Antibacterial activity against Clostridioides difficile; assay type: functional
Staphylococcus aureus [17] = experiment: Antibacterial activity against methicillin resistant Staphylococcus aureus 1; assay type: functional
Staphylococcus aureus [18] = experiment: Antibacterial activity against methicillin resistant Staphylococcus aureus 2; assay type: functional
Staphylococcus aureus [19] = experiment: Antibacterial activity against methicillin resistant Staphylococcus aureus 3; assay type: functional
Staphylococcus aureus [20] = experiment: Antibacterial activity against fluoroquinolone sensitive Staphylococcus aureus; assay type: functional
Staphylococcus aureus [21] = experiment: Potency index, ratio of levofloxacin MIC to test compound MIC for antibacterial activity against fluoroquinolone/methicillin resistant Staphylococcus aureus; assay type: functional
Escherichia coli [22] = experiment: Antibacterial activity against ciprofloxacin resistant Escherichia coli; assay type: functional
Staphylococcus aureus [23] = experiment: Antibacterial activity against ciprofloxacin resistant Staphylococcus aureus; assay type: functional
Staphylococcus aureus [24] = experiment: Antibacterial activity against methicillin resistant Staphylococcus aureus reference strain; assay type: functional
Staphylococcus aureus [25] = experiment: Antibacterial activity against methicillin resistant Staphylococcus aureus clinical strain; assay type: functional

CCn1cc(C(=O)O)c(=O)c2cc(F)c(N3CCN(C(=O)CN4C(=O)S/C(=C\c5ccc(Cl)cc5Cl)C4=O)CC3)cc21
MIC (Escherichia coli [1]): 0.25 µg/mL (≈ 0.395 µM)
MIC (Pseudomonas aeruginosa [2]): 0.25 µg/mL (≈ 0.395 µM)
MIC (Salmonella enteritidis): 0.25 µg/mL (≈ 0.395 µM)

COc1c(N2CCNC(C)C2)c(F)cc2c(=O)c(C(=O)O)cn(C3CC3)c12 (configuration not stated) [GATIFLOXACIN]
MIC (Staphylococcus aureus [3]): 0.06 µg/mL (≈ 0.16 µM)
MIC (Staphylococcus aureus [4]): 0.06 µg/mL (≈ 0.16 µM)
MIC (Streptococcus pneumoniae): 0.06 µg/mL (≈ 0.16 µM)

O=C(O)c1cn(C2CC2)c2cc(N3CCN(CN4c5ccccc5C(=O)N(c5ccc(Br)cc5)C4c4ccccc4)CC3)c(F)cc2c1=O (configuration not stated)
MIC (Klebsiella pneumoniae): 0.1 µg/mL (≈ 0.138 µM)
MIC (Pseudomonas aeruginosa [2]): 0.1 µg/mL (≈ 0.138 µM)
MIC (Staphylococcus aureus [3]): 0.1 µg/mL (≈ 0.138 µM)
MIC [5]: 0.1 µg/mL (≈ 0.138 µM)
MIC [6]: 0.1 µg/mL (≈ 0.138 µM)
MIC (Vibrio cholerae): 0.1 µg/mL (≈ 0.138 µM)
MIC (Shigella flexneri): 0.1 µg/mL (≈ 0.138 µM)
MIC (Citrobacter freundii): 0.1 µg/mL (≈ 0.138 µM)

O=C(O)c1cn(-c2ccc(F)cc2)c2cc(N3CCN(Cc4nc5ccc(Cl)cc5c(=O)[nH]4)CC3)c(F)cc2c1=O
MIC (Staphylococcus aureus [3]): 0.125 µg/mL (≈ 0.216 µM)
MIC (Staphylococcus aureus [7]): 0.125 µg/mL (≈ 0.216 µM)

CNC1CN(c2c(F)c(C)c3c(=O)c(C(=O)O)cn(-c4cc(N)c(F)cc4CO)c3c2Cl)C1
MIC (Pseudomonas aeruginosa [8]): 0.008 µg/mL (≈ 0.0167 µM)
MIC (Escherichia coli [9]): 0.008 µg/mL (≈ 0.0167 µM)
MIC (Pseudomonas aeruginosa [10]): 0.12 µg/mL (≈ 0.251 µM)
MIC (Escherichia coli [11]): 0.12 µg/mL (≈ 0.251 µM)
MIC (Acinetobacter baumannii [12]): 0.12 µg/mL (≈ 0.251 µM)
Ratio (Pseudomonas aeruginosa [13]): 2
Ratio (Escherichia coli [14]): 2
Ratio (Acinetobacter baumannii [15]): 2

CCn1cc(C(=O)O)c(=O)c2cc(F)c(N3CCNCC3)cc21 [NORFLOXACIN]
MIC (Escherichia coli [1]): < 0.24 µg/mL
MIC [16]: < 0.24 µg/mL
MIC (Pseudomonas aeruginosa [2]): < 0.24 µg/mL
MIC (Staphylococcus aureus [3]): < 0.24 µg/mL
MIC (Enterococcus faecalis): < 0.24 µg/mL
MIC (Bacillus cereus): < 0.24 µg/mL
MIC [6]: 2.4 µg/mL (≈ 7.52 µM)
MIC (Salmonella enteritidis): 0.0625 µg/mL (≈ 0.196 µM)

O=C(CN1CCN(c2cc3c(cc2F)c(=O)c(C(=O)O)cn3-c2ccc(F)cc2)CC1)c1ccc(Cl)cc1
MIC (Escherichia coli [1]): 0.5 µg/mL (≈ 0.929 µM)
MIC (Klebsiella pneumoniae): 0.5 µg/mL (≈ 0.929 µM)
MIC (Pseudomonas aeruginosa [2]): 0.5 µg/mL (≈ 0.929 µM)
MIC (Staphylococcus aureus [3]): 0.5 µg/mL (≈ 0.929 µM)
MIC [5]: 0.5 µg/mL (≈ 0.929 µM)
MIC (Bacillus subtilis): 0.5 µg/mL (≈ 0.929 µM)
MIC (Serratia marcescens): 0.5 µg/mL (≈ 0.929 µM)

CCn1cc(C(=O)O)c(=O)c2cc(F)c(N3CCN(C(=O)CN4C(=O)S/C(=C\c5ccc(OC)cc5)C4=O)CC3)cc21
MIC (Escherichia coli [1]): 0.25 µg/mL (≈ 0.42 µM)
MIC (Pseudomonas aeruginosa [2]): 0.25 µg/mL (≈ 0.42 µM)
MIC (Salmonella enteritidis): 0.25 µg/mL (≈ 0.42 µM)

C[C@H]1COc2c(N3CCN(C)CC3)c(F)cc3c(=O)c(C(=O)O)cn1c23.C[C@H]1COc2c(N3CCN(C)CC3)c(F)cc3c(=O)c(C(=O)O)cn1c23.O [LEVOFLOXACIN]
MIC (Pseudomonas aeruginosa [8]): 0.015 µg/mL
MIC (Escherichia coli [11]): 4 µg/mL
MIC (Acinetobacter baumannii [12]): 4 µg/mL
MIC50 (Clostridioides difficile): 128 µg/mL
MIC90 (Clostridioides difficile): > 128 µg/mL

CCn1cc(C(=O)O)c(=O)c2cc(F)c(N3CCN(Cc4nnc(-c5ccccc5Cl)o4)CC3)cc21
MIC (Staphylococcus aureus [3]): 0.25 µg/mL (≈ 0.488 µM)
MIC (Staphylococcus aureus [17]): 0.25 µg/mL (≈ 0.488 µM)
MIC (Staphylococcus aureus [18]): 0.25 µg/mL (≈ 0.488 µM)
MIC (Staphylococcus aureus [19]): 0.25 µg/mL (≈ 0.488 µM)

C[C@H]1COc2c(N3C4CCC3CC(O)C4)c(F)cc3c(=O)c(C(=O)O)cn1c23 (some centres not stated)
MIC (Staphylococcus aureus [20]): ≤ 0.5 µg/mL
Ratio (Staphylococcus aureus [21]): 4

CCn1cc(C(=O)O)c(=O)c2cc(F)c(N3CCN(C(=O)CN4C(=O)S/C(=C\c5ccc(Cl)cc5)C4=O)CC3)cc21
MIC (Escherichia coli [1]): 0.25 µg/mL (≈ 0.417 µM)
MIC (Pseudomonas aeruginosa [2]): 0.25 µg/mL (≈ 0.417 µM)
MIC (Salmonella enteritidis): 0.25 µg/mL (≈ 0.417 µM)

CCn1cc(C(=O)O)c(=O)c2cc(F)c(N3CCN(C(=O)CN4C(=O)S/C(=C\c5ccccc5)C4=O)CC3)cc21
MIC (Escherichia coli [1]): 0.5 µg/mL (≈ 0.886 µM)
MIC (Pseudomonas aeruginosa [2]): 0.5 µg/mL (≈ 0.886 µM)
MIC (Salmonella enteritidis): 0.5 µg/mL (≈ 0.886 µM)

Cc1nc(Cl)nc(N2CCN(c3cc4c(cc3F)c(=O)c(C(=O)O)cn4C3CC3)CC2)c1N
MIC (Escherichia coli [22]): 7.4 µg/mL (≈ 15.6 µM)
MIC (Staphylococcus aureus [23]): 7.4 µg/mL (≈ 15.6 µM)

O=C(O)c1cn(-c2ccc(F)cc2)c2cc(N3CCNCC3)c(F)cc2c1=O [SARAFLOXACIN]
MIC (Staphylococcus aureus [3]): < 0.125 µg/mL
MIC [5]: < 0.125 µg/mL
MIC (Bacillus subtilis): < 0.125 µg/mL

O=C(O)c1cn(C2CC2)c2cc(N3CCN(Cc4c(O)ccc5ccccc45)CC3)c(F)cc2c1=O
MIC (Escherichia coli [1]): 0.012 µg/mL (≈ 0.0246 µM)
MIC (Klebsiella pneumoniae): 0.012 µg/mL (≈ 0.0246 µM)
MIC (Pseudomonas aeruginosa [2]): 0.012 µg/mL (≈ 0.0246 µM)
MIC (Staphylococcus aureus [24]): 0.012 µg/mL (≈ 0.0246 µM)
MIC (Staphylococcus aureus [25]): 0.012 µg/mL (≈ 0.0246 µM)

COc1c(N2CCN(C(=O)Cn3cc(CN4C(=O)C(=O)c5cc(F)ccc54)nn3)C(C)C2)c(F)cc2c(=O)c(C(=O)O)cn(C3CC3)c12 (configuration not stated)
MIC (Staphylococcus aureus [3]): ≤ 0.03 µg/mL
MIC (Staphylococcus aureus [17]): ≤ 0.03 µg/mL
MIC (Staphylococcus aureus [18]): ≤ 0.03 µg/mL
MIC (Staphylococcus aureus [19]): ≤ 0.03 µg/mL

COc1ccc2nc(CN3CCN(c4cc5c(cc4F)c(=O)c(C(=O)O)cn5-c4ccc(F)cc4)CC3)[nH]c(=O)c2c1
MIC (Staphylococcus aureus [3]): 0.125 µg/mL (≈ 0.218 µM)
MIC (Staphylococcus aureus [7]): 0.125 µg/mL (≈ 0.218 µM)

CN[C@H](CC(C)C)C(=O)N[C@H]1C(=O)N[C@@H](CC(N)=O)C(=O)N[C@H]2C(=O)N[C@H]3C(=O)N[C@H](C(=O)N[C@H](C(=O)O)c4cc(O)cc(O)c4-c4cc3ccc4O)[C@H](O)c3ccc(c(Cl)c3)Oc3cc2cc(c3O[C@@H]2O[C@H](CO)[C@@H](O)[C@H](O)[C@H]2O[C@H]2C[C@](C)(N)[C@H](O)[C@H](C)O2)Oc2ccc(cc2Cl)[C@H]1O [VANCOMYCIN]
MIC50 (Clostridioides difficile): 2 µg/mL (≈ 1.38 µM)
MIC90 (Clostridioides difficile): 4 µg/mL (≈ 2.76 µM)
